Laboratory results from publication PMC11728707, “Chemical Composition and Assessment of the Anti-Inflammatory, Antioxidant, Cytotoxic and Skin Enzyme Inhibitory Activities of Citrus sinensis (L.) Osbeck Essential Oil and Its Major Compound Limonene” (Pharmaceuticals, 2024).

Biological target: T1, tyrosinase
T1 construct: gene PPO3
Experiment: spectrophotometric L-DOPA oxidation assay, […] nm
Type: biochemical
Details: 5 mM L-DOPA, 50 mM phosphate pH 6.5, 37 °C

| Tyrosinase | Structure (SMILES) |
| --- | --- |
| 86.07 ± 1.53 µg/mL | C=C(C)[C@H]1CC=C(C)CC1 [Limonene] |
| 111.03 ± 0.1 µg/mL | O=c1c(O)c(-c2ccc(O)c(O)c2)oc2cc(O)cc(O)c12 [Quercetin] |
